From publication PMC9343080, “Distribution- and Metabolism-Based Drug Discovery: A Potassium-Competitive Acid Blocker as a Proof of Concept” (Research, 2022)
Where two headings read alike, the source gives them in different places.

Assays:
[1] = Metabolite identification and profiling in rat liver microsomes; format: in vitro ADME; conditions: SH-337 10 µM, 30 min incubation
Protocol: Liver microsomes (1 mg protein/mL) were suspended in phosphate buffer (50 mM, pH 7.4) containing MgCl2 (6 mM). […] The reactions were initiated at 37°C by the addition of 1 mM NADPH and terminated at 30 min or 60 min (30 min for rat; 60 min for human). The samples were precipitated with acetonitrile at 1 : 2 and further centrifuged; the supernatants were dried with a stream of N2 gas. The residues were reconstituted with 300 μL of 10% acetonitrile/H2O (0.1% TFA) and analyzed by LC-MS/MS. The assays were pursued under the conditions provided in Supplementary Tables S4, S6, S7, and S8.

[2] = system: 2-DG-stimulated gastric acid secretion; experiment: In vivo inhibition of 2DG-stimulated acid secretion in anesthetized rats; parameters: species or system rat
Protocol: 60 SPF SD rats weighing 180-220 g were randomly divided into […]: sham, model, SH-337 (2 mg/kg and 4 mg/kg), vonoprazan (2 mg/kg), males and females are equally divided. Fasting for 24 hours, model and sham groups were treated with deionized water. Drugs and vehicle were given through intragastric administration to rats before anesthesia. 1 h after administration, pylorus was ligated. 5 min later, histamine 2HCl (30 mg/10 mL/kg) was injected subcutaneously. At 3 h after histamine administration, the rats were killed by CO2 asphyxiation. The gastric contents were collected in a 10 mL centrifuge tube after removing their stomachs. Centrifuge at 3000 g for 10 min, and then, determine the total acid output during a 3 h period by 0.1 M NaOH [52, 53]. %Inhibition = (average of modelacid–drugacid)/average of modelacid × 100%.
The 2DG-stimulated acid secretion in anesthetized rats was measured as described as for histamine-stimulated acid secretion, with the exception that 5 min after pylorus ligation, 2-DG (200 mg/10 mL/kg) was injected subcutaneously.

[3] = Rat microsomal stability; format: in vitro ADME
Protocol: (§1) The in vitro metabolic stabilities of selected compounds were performed using human and rat liver microsomes in triplicate as described previously.

[4] = pKa measurement (pH-metric method); format: physicochemical
Protocol: (§2) Procedure for pKa and log D7.4 measurements. The pKa was determined using pH-metric Method from DMSO Stock Solution. Procedure for Log D determinations: 15 µL of stock solutions of test compounds and control compound was placed in order into their proper 96-well rack. 500 µL of PBS saturated 1-octanol was added into each vial of the cap-less Log D plate followed by the addition of 500 µL of 1-octanol saturated PBS (pH 7.4). One stir stick was added to each vial and a molded PTFE/Silicone plug was used to seal each vial. Then the Log D plate was transferred to the Eppendorf Thermomixer Comfort plate shaker and shaken at 25°C at 1,100 RPM for 1 hour. After completion of 1 hour, plugs were removed and the stir sticks were removed using a big magnet. The samples were then centrifuged at 25°C at 20,000 g for 20 minutes to separate the phases, and pipette and syringe were used to remove the upper (1-octanol) and lower (buffer) phases to the empty tubes, respectively. Aliquots of 5 µL were taken from upper phases followed by addition of 495 µL of a mixture of H2O and acetonitrile (1:1 in v/v). Vortex for 1 minute, and then aliquots of 50 µL were taken from the diluent followed by addition of 450 µL of a mixture of H2O and acetonitrile (1:1 in v/v). And aliquots of 50 µL were taken from lower phases followed by addition of 450 µL of a mixture of H2O and acetonitrile (1:1 in v/v). 200 μL of diluent was transferred to a new 96-well plate for LC-MS/MS analysis. The dilution factor was changed according to the Log D value and the LC-MS signal response. The concentrations of test compound and control compound in 1-octanol/buffer solution were evaluated by LC-MS/MS. The Log D values of the test compounds and control compound were calculated as follows: […]

[5] = Human microsomal stability; format: in vitro ADME
Protocol: as §1

[6] = Two-week repeat-dose toxicity test; format: in vivo, SD rats
Protocol: For acute toxicity test: 12 SPF SD rats were randomly divided into three groups and received a single dose of SH-337 (1000 mg/kg, i.g.), and the animal tolerance was recorded within 2 hours. For two-week repeat-dose toxicity test: 20 SPF SD rats were randomly divided into two groups and received SH-337 (100, 200 mg/kg, i.g.) once daily for 14 days. SH-337 was dissolved in 0.5% CMC-Na. The body weight of the rats was recorded every 7 days. During the experiment, clinical parameters included apparent changes in the mental state, skin or fur, behavior, genitals, mucous membranes, respiration, stool consistency, glandular organ secretions, mortality, or other toxic results that were recorded. In addition, animal bodyweight and food intake were assessed once weekly over the study period. At the end of the experiment, the rats were sacrificed, and the serum hematological parameters and serum biochemistry parameters were recorded.

[7] = target: T1, rabbit gastric H+, K+-ATPase (Oryctolagus cuniculus, UniProt P27112); experiment: In vitro enzymatic activity assay (inorganic phosphate from ATP hydrolysis); format: biochemical
T1 construct: using rabbit gastric H^+, K^+-ATPase; from tissue; host or cells: rabbit stomach (gastric preparation; the method of preparation is not described)
Protocol: The in vitro enzymatic activity was calculated by measuring the inorganic phosphate produced by the hydrolysis of ATP using rabbit gastric H^+, K^+-ATPase. 0.25 μg enzyme was preincubated at 37°C for 30 min in Tris-HCl buffer (2.0 mL, 50 mM, pH 6.5) containing 5 mM MgCl2, 10 μM valinomycin, 0 or 20 mM KCl, and different concentrations of SH-337 and vonoprazan. The reaction was initiated by adding 5 μL of 5 mM ATP 2Na, and the preparation was incubated for 30 min at 37°C and halted by the addition of 100 μL of malachite green reagent (0.12% malachite green, 7.5% ammonium molybdate, and 11% tween 20 were mixed in a volume ratio of 100 : 25 : 2). H^+, K^+-ATPase activity was calculated after subtracting the enzyme activity in the absence of KCl.

[8] = target: Na+, K+-ATPase; experiment: In vitro Na+, K+-ATPase activity; format: biochemical
[9] = log D7.4 measurement (1-octanol/PBS pH 7.4); format: physicochemical
Protocol: as §2

T1 sequence (P27112 whole entry): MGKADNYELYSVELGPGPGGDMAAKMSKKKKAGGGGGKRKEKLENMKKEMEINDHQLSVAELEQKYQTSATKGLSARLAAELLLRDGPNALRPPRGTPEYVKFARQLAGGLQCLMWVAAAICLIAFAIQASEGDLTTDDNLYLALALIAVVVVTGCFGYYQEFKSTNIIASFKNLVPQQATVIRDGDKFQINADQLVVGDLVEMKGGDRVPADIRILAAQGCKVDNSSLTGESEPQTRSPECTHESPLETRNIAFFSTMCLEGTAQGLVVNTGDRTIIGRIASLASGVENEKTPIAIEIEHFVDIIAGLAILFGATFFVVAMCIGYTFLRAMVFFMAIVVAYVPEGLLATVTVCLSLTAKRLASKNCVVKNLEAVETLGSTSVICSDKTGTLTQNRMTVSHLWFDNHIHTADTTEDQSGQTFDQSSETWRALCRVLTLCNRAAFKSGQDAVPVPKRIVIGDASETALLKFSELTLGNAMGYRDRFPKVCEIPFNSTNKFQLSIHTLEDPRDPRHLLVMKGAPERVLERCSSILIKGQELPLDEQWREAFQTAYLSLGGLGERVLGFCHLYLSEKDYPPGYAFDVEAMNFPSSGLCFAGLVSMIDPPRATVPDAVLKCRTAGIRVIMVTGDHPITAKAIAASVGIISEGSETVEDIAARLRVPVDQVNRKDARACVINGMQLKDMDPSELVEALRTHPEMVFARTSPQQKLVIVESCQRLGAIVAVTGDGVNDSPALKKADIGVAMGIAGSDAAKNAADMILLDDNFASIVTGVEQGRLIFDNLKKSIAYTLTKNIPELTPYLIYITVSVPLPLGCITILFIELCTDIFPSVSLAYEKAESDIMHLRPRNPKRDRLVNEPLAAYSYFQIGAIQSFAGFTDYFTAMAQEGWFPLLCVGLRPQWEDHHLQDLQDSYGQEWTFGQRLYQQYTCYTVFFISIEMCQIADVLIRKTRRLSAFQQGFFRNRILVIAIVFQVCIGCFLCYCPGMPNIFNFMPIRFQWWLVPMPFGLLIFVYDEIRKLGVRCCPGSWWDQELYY
T1 sequence (P18597 whole entry partner): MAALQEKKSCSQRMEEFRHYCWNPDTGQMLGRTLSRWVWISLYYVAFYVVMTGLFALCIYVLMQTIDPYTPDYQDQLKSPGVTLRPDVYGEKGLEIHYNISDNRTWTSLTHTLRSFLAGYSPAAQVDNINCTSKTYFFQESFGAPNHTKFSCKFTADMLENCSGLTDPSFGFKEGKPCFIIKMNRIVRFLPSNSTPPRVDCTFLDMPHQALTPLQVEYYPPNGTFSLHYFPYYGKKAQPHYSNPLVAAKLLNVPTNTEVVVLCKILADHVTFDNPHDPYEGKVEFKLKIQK

For `CNCc1cc(-c2ccc(OCC3CC3)cc2F)n(S(=O)(=O)c2cccnc2)c1.Cl.Cl` [SH-337, 1-(5-(4-(cyclopropylmethoxy)-2-fluorophenyl)-1-(pyridin-3-ylsulfonyl)-1H-pyrrol-3-yl)-N-methylmethanamine dihydrochloride], the “Relative peak area, RLMs” value [1] was 45.7%, the “Inhibition (%), 2-DG-stimulated model” value ([2]; i.g. 2 mg/kg) was 78% and the “Total acid output, 2-DG-stimulated model” value ([2]; i.g. 2 mg/kg) was 0.65 ± 0.31^∗∗ 10^−4 mol. The “Inhibition (%), 2-DG-stimulated model” value ([2]; i.g. 4 mg/kg) was 91%, the “Total acid output, 2-DG-stimulated model” value ([2]; i.g. 4 mg/kg) was 0.29 ± 0.29^∗∗ 10^−4 mol and the “fold reduction of t1/2 vs. vonoprazan” value ([3]; rat microsomes) was 17.6 fold. For the same compound, the half-life ([3]; rat, rat liver microsomes, read-out: Metabolic stability (t1/2) rat) was 3.1 min, the pKa [4] was 9.03 and the pKa ([4]; read-out: pKa) was 9. The “fold reduction of t1/2 vs. vonoprazan” value ([5]; human microsomes) was 4.2 fold, the half-life ([5]; human, human liver microsomes, read-out: Metabolic stability (t1/2) human) was 81.4 min and the “NOAEL, fold higher than vonoprazan” value ([6]; 100 mg/kg vs. 30 mg/kg) was 3.3 fold. For the same compound, the NOAEL at 14 days ([6]; SD, rat, in vivo, po, no observed adverse effect level (NOAEL)) was ≥ 100 mg/kg, the repeated-dose toxicity findings ([6]; rats, daily oral 100 mg/kg for 2 weeks) was “no evidence of SH-337 toxicity was observed” and the IC50 [7] was 0.0338 µM. For the same compound, the “fold greater enzyme inhibitory activity than vonoprazan” value ([7]; H+, K+-ATPase IC50, SH-337 vs. vonoprazan) was 2.0 fold, the IC50 [8] was 31.3 µM and the Fold selectivity ([8]; Na+, K+-ATPase over H+, K+-ATPase) was 925.6 fold. The logD at 1 h ([9]; 1-octanol/PBS, pH 7.4, pH 7.4) was 1.3 and the “log D7.4” value ([9]; pH 7.4) was 1.28.
